Source: patent publication US12492208B2, “Crystal of pyrimidine compound” (TAIHO PHARMACEUTICAL CO., LTD., priority 2020, dated 2025)

Legend:
SK-BR-3 cells = experiment: Growth inhibitory activity against HER2 expressing cell line; type: cell-based; settings: Homo sapiens, SK-BR-3, 72 h; 3 days, CellTiter-Glo 2.0
Method: SK-BR-3 cells as a HER2 overexpressing human breast cancer cell line were suspended in a McCoy's 5a medium (manufactured by Life Technologies) supplemented with 10% fetal bovine serum. The cell suspension was seeded in each well of a 384-well flat-bottom microplate, and was then cultured in a 5% carbon dioxide gas-containing culture vessel at 37° C. for 1 day. Thereafter, the compound (I) obtained according to the method in Synthesis Example 1 was dissolved in DMSO, and the compound was diluted to 500 times the final concentration in DMSO. The compound in the DMSO solution was diluted with DMSO solution or the medium used in the suspension of the cells, and the obtained solution was then added to each well of the culture plate so that the final concentration of DMSO was 0.2%. The obtained mixture was further cultured in the 5% carbon dioxide gas-containing culture vessel at 37° C. for 3 days. After completion of the culture for 3 days in the presence of the compound, the cells were counted using CellTiter-Glo 2.0 (manufactured by Promega), and the growth inhibition percentage was then calculated according to the following equation. The concentration of the compound, in which the growth of the cells can be inhibited by 50%, was defined as IC50 (nM). […]

[1] = molecular target: T1, recombinant human HER2 exon 20 insertion mutant (A775_G776insYVMA) protein (Homo sapiens, UniProt P04626, INS775YVMA); experiment: Inhibitory action (in vitro) against HER2 exon 20 insertion mutant phosphorylation activity; type: biochemical; settings: pre-incubated 30 minutes, ATP 200 μM, 220 minutes; read-out: HER2ex20insYVMA inhibitory activity IC50 value
T1 construct: purchased SignalChem
T1 sequence (P04626 with tags, fused parts or gaps INS775YVMA limits assumed): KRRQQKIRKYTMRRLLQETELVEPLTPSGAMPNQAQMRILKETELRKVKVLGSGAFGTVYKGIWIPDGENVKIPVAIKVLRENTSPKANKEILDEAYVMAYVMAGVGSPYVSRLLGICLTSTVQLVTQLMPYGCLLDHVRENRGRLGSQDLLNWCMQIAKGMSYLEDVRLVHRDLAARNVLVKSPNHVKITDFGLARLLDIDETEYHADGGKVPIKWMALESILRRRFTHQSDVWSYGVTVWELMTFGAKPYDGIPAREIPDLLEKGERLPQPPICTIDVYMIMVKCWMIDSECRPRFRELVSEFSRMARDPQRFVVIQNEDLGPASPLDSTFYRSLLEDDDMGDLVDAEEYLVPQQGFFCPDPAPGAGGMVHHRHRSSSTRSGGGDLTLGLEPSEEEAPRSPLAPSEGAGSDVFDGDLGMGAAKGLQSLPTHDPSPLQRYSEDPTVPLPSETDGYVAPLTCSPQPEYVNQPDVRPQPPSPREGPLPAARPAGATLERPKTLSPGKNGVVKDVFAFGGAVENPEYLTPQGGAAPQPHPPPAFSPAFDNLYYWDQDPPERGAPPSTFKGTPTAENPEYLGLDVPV
Excerpt: In order to determine conditions for a method of measuring the in vitro inhibitory activity of a compound against HER2 exon 20 insertion mutant phosphorylation activity, as in the case of HER2, ProfilerPro Peptide 22 was used as a substrate. A purified recombinant human HER2 exon 20 insertion mutant (A775_G776insYVMA) protein was purchased from SignalChem. Upon the measurement of the inhibitory activity of the compound, first, the compound (I) obtained according to the method in Synthesis Example 1 was diluted stepwise with dimethyl sulfoxide (DMSO). Subsequently, the HER2 exon 20 insertion mutant protein and the compound (I) in DMSO solution (final concentration of DMSO: 5%) were added into a buffer for the kinase reaction (13.5 mM Tris (pH 7.5), 2 mM dithiothreitol, and 0.009% Tween 20), and the obtained mixture was then pre-incubated at 25° C. for 30 minutes. […] Finally, using LabChip (registered trademark) EZ Reader II (PerkinElmer), an unphosphorylated substrate peptide(S) and a phosphorylated peptide (P) were separated and detected according to microchannel capillary electrophoresis. […]

NCI-N87 cells = experiment: Growth inhibitory activity against HER2 expressing cell line (NCI-N87); type: cell-based; settings: Homo sapiens, NCI-N87, 72 h; 3 days, CellTiter-Glo 2.0
Method: NCI-N87 cells as a HER2 overexpressing human stomach cancer cell line (American Type Culture Collection, Cat No. ATCC (registered trademark) CRL-5822) were suspended in an RPMI1640 medium (Wako Pure Chemical Industries, Ltd.) supplemented with 10% fetal bovine serum. Subsequently, the cell suspension was seeded in each well of a 96-well flat-bottom microplate, and was then cultured in a 5% carbon dioxide gas-containing culture vessel at 37° C. for 1 day. Thereafter, the compound (I) obtained according to the method in Synthesis Example 1 was dissolved in DMSO, and the compound was diluted to 1000 times the final concentration in DMSO. The compound (I) in the DMSO solution was diluted with the medium used in the suspension of the cells, and the obtained solution was then added to each well of the culture plate, so that the final concentration of DMSO became 0.1%. Regarding a control well, DMSO was diluted with the medium used in the suspension of the cells, and the obtained solution was then added to each well of the culture plate, so that the final concentration of DMSO became 0.1%. […] After completion of the culture for 3 days in the presence of the compound, the cells were counted using CellTiter-Glo 2.0 (manufactured by Promega) in accordance with the protocols recommended by Promega. The growth inhibition percentage was calculated according to the following equation. […]

C=CC(=O)N1C[C@H](n2c(C#CC3CC3)c(C(=O)N[C@H](C)c3ccccc3)c3c(N)ncnc32)C[C@@H]1C [compound (I), 7-((3R,5S)-1-acryloyl-5-methylpyrrolidin-3-yl)-4-amino-6-(cyclopropylethynyl)-N—((R)-1-phenylethyl)-7H-pyrrolo[2,3-d]pyrimidine-5-carboxamide]
IC50 (SK-BR-3 cells): 6.6 nM | IC50 [1]: < 0.3 nM | IC50 (NCI-N87 cells): 9.9 nM
